Laboratory results published in the METLIN SMRT retention time set (Domingo-Almenara et al. 2019).

Assay: gradient 5% acetonitrile 3 min, to 50% in 2 min, to 85% in 15 min, held 3 min, 100 µL/min
Details: column: Zorbax Extend-C18 2.1 x 50 mm; eluents: water / acetonitrile, 0.1% formic acid
Outline: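 Retention times of pure standards were taken from adduct peaks that were selected by computer and manually inspected. Over 3 months, mixtures of ~100 molecules were run by HPLC–quadrupole time-of-flight mass spectrometry in positive and negative ionization mode. The Zorbax Extend-C18 column (2.1 × 50 mm, 1.8 μm) ran at 100 μL/min in water and acetonitrile, each containing 0.1% formic acid, with 40 μL dead volume and 900 μL dwell volume.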

| RP-LC retention time [s] | Compound |
| --- | --- |
| 1060 | CCOc1cccc(-c2noc(CCn3nc(-c4ccc(F)cc4)ccc3=O)n2)c1 |
| 864 | Cc1onc(-c2ccccc2Cl)c1C(=O)Nn1cnc2c(cnn2C(C)(C)C)c1=O |
| 858 | O=C(Cn1c(=O)c2cccn2c2ccc(F)cc21)Nc1ccccc1F |
| 649 | Cn1nc2n(c1=O)CCN(S(=O)(=O)c1cccc3cccnc13)CC2 |
| 652 | Cc1nc2n(c(=O)c1C)CCN2CC(=O)NCc1ccccc1Cl |
| 794 | COc1ccc(CC(=O)N2C[C@@H]3C[C@H](NC(=O)c4ccccc4)[C@H]2C3)cc1Cl |
| 757 | O=C(NCc1ccc2c(c1)OCO2)c1ncoc1-c1ccccc1C(=O)N1CCCC1 |
| 724 | Cn1nc2n(c1=O)CCC(NC(=O)c1n[nH]c3c1CC(C(C)(C)C)CC3)CC2 (stereo not drawn) |
| 735 | COc1ccc(NC(=O)c2ccc(-c3cncnc3)nc2)cc1Cl |
| 611 | Cn1ccc(CN2CCC(Cc3ccccc3)CC2)cc1=O |
| 692 | CCOC(=O)CNC(=O)N1CC(n2cc(COc3ccc(F)cc3)nn2)C1 |
| 829 | O[C@@H](c1cc(C(F)(F)F)nc2c(C(F)(F)F)cccc12)[C@@H]1CCCCN1 |
| 843 | CC(=O)Nc1nsc(N2CCCC(C(=O)N3CCN(c4cc(C)ccc4C)CC3)C2)n1 (stereo not drawn) |
| 636 | CN1C(=O)c2cccn2CC1CNC(=O)c1cccn1C (stereo not drawn) |
| 898 | Cc1noc(-c2ccc(-n3ncc(C(=O)NCCc4c[nH]c5ccccc45)c3C)nc2)n1 |
| 569 | O=C(CCc1nnc2ccc(NCc3ccco3)nn12)N1CCN(c2ccccn2)CC1 |
| 1060 | COc1ccc(Cc2nc(-c3ccc4oc(C)nc4c3)no2)c(Cl)c1 |
| 698 | Cc1ccn2cc(-c3ccc(NC(=O)c4ccc(Br)cc4)cc3)nc2n1 |
| 668 | O=C([C@@H]1C[C@H](F)CN1C(=O)c1ccccc1)N1CCCCC1 |
| 1080 | O=S(=O)(c1ccc(Cl)cc1)N1CCc2nc(-c3ccccc3)ncc2C1 |
| 1150 | COc1cccc(C2Cn3nnc(-c4nc(-c5ccccc5Cl)no4)c3CO2)c1 (stereo not drawn) |
| 1250 | Cc1ccc(S(=O)(=O)N2CCCCC2)cc1-c1nnc(-c2ccc(Cl)cc2)o1 |

| RP-LC retention time [s] | Compound |
| --- | --- |
| 586 | COc1ccc(NC(=O)c2cnc(N3CCN(CC(=O)N4CCCC4)CC3)nc2N)cc1 |
| 842 | CCC(C)NC(=O)C1CCN(S(=O)(=O)c2c(C)nn(-c3ccc(F)cc3)c2C)CC1 (stereo not drawn) |
| 750 | CCCN(CC1CCOC1)C(=O)Nc1ccc(OCC)cc1 (stereo not drawn) |
| 770 | COCCNC(=O)C1CCN(C(=O)c2cc3ccsc3n2Cc2cccc(OC)c2)CC1 |
| 803 | COc1ccc(OC)c(NC(=O)C2CCCN2S(=O)(=O)c2ccc3c(c2)NC(=O)CO3)c1 (stereo not drawn) |
| 1140 | CCOC(=O)c1cc(C2CC2)nc2c1c(=O)n(Cc1ccccc1F)c(=O)n2C |
| 661 | O=C1C(N2CCCN(S(=O)(=O)c3cc(F)cc(F)c3)CC2)CCN1CC1CC1 (stereo not drawn) |
| 790 | CCC(=O)N1CCc2cc(CNS(=O)(=O)c3ccccc3)ccc21 |
| 959 | CCn1cc(-c2ccc(F)cc2)cc1C(=O)N1CCCC1 |
| 862 | Cc1ccc(N2CCC(NC(=O)Nc3cccc(C)c3)C2=O)cc1 (stereo not drawn) |
| 759 | Cc1nnc2sc(SCC(=O)Nc3cccc(C(F)(F)F)c3)nn2c1=O |
| 895 | Cc1ccc2c(c1)NC(=O)C(C(=O)NC1CCCCCCC1)O2 (stereo not drawn) |
| 812 | COc1ccc(CNC(=O)N2CCN(Cc3nc4cc(-c5ccccc5)ccc4o3)CC2)cc1 |
| 886 | O=C(NCCc1c[nH]c2ccc(Cl)cc12)c1cn2cc(Cl)ccc2n1 |
| 828 | COc1ccc(-c2cc(N3CCC(NC(=O)c4cccc(OC(F)(F)F)c4)C3)n[nH]2)cc1 (stereo not drawn) |
| 702 | COc1ccc(-c2nc(Nc3nc(C)cc(C)n3)sc2CCC(=O)O)cc1 |
| 568 | Cc1nn(CC(=O)N2CCN(c3ccccn3)CC2)c(=O)c2cccn12 |
| 630 | OC[C@H]1O[C@@H](n2cnc3c(NC4CCCC4)ncnc32)C(O)[C@H]1O (stereo partly drawn) |
| 639 | O=C(NC1CC(=O)N(C2CC2)C1)c1ccc(Cl)s1 (stereo not drawn) |
| 563 | COc1cc(N2C(=O)CC(N3CCC(C(N)=O)CC3)C2=O)cc(OC)c1OC (stereo not drawn) |
| 793 | CCC(C)C(NC(=O)c1ccc(Cl)cc1)C(=O)Nc1nc2ccccc2[nH]1 (stereo not drawn) |
| 1000 | O=C(c1ccccc1)c1ccc(-c2ccc(O)cc2)cc1 |

| RP-LC retention time [s] | Compound |
| --- | --- |
| 956 | O=c1n(Cc2ccc(F)cc2)nc2c(S(=O)(=O)N3CCCCCC3)cccn12 |
| 795 | Cc1ccc(-n2nc3c(=O)n(CC(=O)NC4CCCC4)nc(C)c3c2C)cc1 |
| 637 | Cc1cc(N2CCN(C(=O)COc3ccc(Cl)cc3)CC2)nc2nnc(C)n12 |
| 616 | COc1cccc(NC(=O)N2CCN(c3cnn4c(C)nnc4c3)CC2)c1 |
| 769 | O=S(=O)(Nc1cccc(-c2cn3cccnc3n2)c1)c1ccc(Br)cc1 |
| 915 | O/C(=C\Sc1nnc(COc2ccc(Cl)cc2Cl)o1)c1ccc(F)cc1 |
| 798 | CC(=O)c1cccc(NC(=O)CN(C)c2nc3c(F)cccc3s2)c1 |
| 819 | COc1ccc(-c2cnc(S(=O)(=O)CC(=O)NCc3ccccc3Cl)n2C)cc1 |
| 731 | Cc1noc(C)c1CNC(=O)c1ccc(F)cc1Cl |
| 562 | Cn1ncc2c(N3CCCC3)nc(C(=O)NCc3cccnc3)nc21 |
| 619 | Cc1ccc(NC(=O)c2ccc3c(c2)N(CC(=O)N2CCCC2)C(=O)CO3)nc1 |
| 631 | COc1cccc(-c2nc(CS(=O)(=O)CC(=O)N3CCN(c4ccccn4)CC3)c(C)o2)c1 |
| 645 | COCCNC(=O)C1CCN(C(=O)c2ncn3c2COC(c2ccc(F)cc2)C3)CC1 (stereo not drawn) |
| 1000 | CCc1nn2c(CNS(=O)(=O)c3ccc(Cl)cc3)c(-c3ccccc3)nc2s1 |
| 844 | COC(=O)C1=CN(c2ccc(OC)cc2)c2cc(F)ccc2S1(=O)=O |
| 597 | CCc1nc2ccccc2n1CC(=O)NCC(C)C |
| 787 | Cc1ccc(CC(=O)N2CCC3(CC2)NC(=O)c2ccc(F)cc2N3C)cc1 |
| 767 | Cc1ccc(F)cc1NC(=O)Cn1nc2cc(-c3ccccn3)nc(C)n2c1=O |
| 729 | NS(=O)(=O)c1ccc(NC(=O)c2ccc(Br)cc2F)cc1 |
| 633 | O=C(O)c1cccc(Nc2c(-c3cccc(O)c3)nc3cnccn23)c1 |
| 772 | O=C(NCCc1ccco1)c1ccc2ccnc(N3CCN(c4ccccc4)CC3)c2c1 |
| 594 | O=C(NC1CCc2nnc(C3CC3)n2CC1)c1ccsc1 (stereo not drawn) |

| RP-LC retention time [s] | Compound |
| --- | --- |
| 714 | CC(Cc1ccco1)NC(=O)c1ccc2nc(CCc3ccccc3)oc2c1 (stereo not drawn) |
| 1140 | CC1CCN(S(=O)(=O)c2ccc(-c3nnc(C(=O)NCC(C)c4ccccc4)o3)cc2)CC1 (stereo not drawn) |
| 712 | CCOc1cc(C)c(C)cc1S(=O)(=O)n1cc(C)nc1CC |
| 894 | c1ccc(-c2nnc(Cc3ccc4c(c3)OCO4)o2)cc1 |
| 678 | O=C(Nc1ccc2c(c1)OCCO2)N1C[C@@H]2C[C@H]1C[C@@H]2NS(=O)(=O)c1ccccc1 |
| 753 | O=C(NCc1cccs1)c1cc2n(n1)CCCC2 |
| 666 | CCn1cnc2cc(-c3noc(C(NC(=O)c4ccco4)C(C)C)n3)ccc21 (stereo not drawn) |
| 747 | CC1=C(c2ccc(C)c(C)c2)S(=O)(=O)N=C1N1CCC(NC(=O)C2CCOC2)CC1 (stereo not drawn) |
| 870 | COc1cccc(NC(=O)N2CCC3(CC2)N=C(c2ccc(Cl)cc2)C(=O)N3)c1 |
| 978 | CCOC(=O)c1ccccc1NC(=O)Cn1c(=O)n(CC)c(=O)c2c1cc(C)n2C |
| 947 | CC(C)c1ccc(C(=O)N2CCC(COc3ccc(C(=O)NC4CC4)cc3)CC2)cc1 |
| 574 | Cc1nc2c(n1C)CN(C(=O)c1ccc(Cl)s1)CC2 |
| 1030 | CCCn1c(=O)sc2cc(S(=O)(=O)N3CCC(C(=O)Nc4ccc(F)c(F)c4)CC3)ccc21 |
| 790 | Cc1ccc(Nc2c(-c3ccc(C(=O)O)cc3)nc3cnccn23)cc1Cl |
| 750 | Cc1csc(NC(=O)CSc2ccc(-c3cccs3)nn2)n1 |
| 1010 | CCCc1nc(-c2c(C)cc(C)nc2NC(=O)c2cccc(Br)c2)no1 |
| 829 | O=c1oc2c(-c3ccc([N+](=O)[O-])cc3)cc(O)cc2s1 |
| 928 | Cc1cc(F)ccc1N1C(=O)CN(S(=O)(=O)c2ccccc2)CC1(C)C(=O)NC1CCCC1 (stereo not drawn) |
| 730 | Cc1ccc(C)c(NC(=O)Cn2nc3c(N4CCCCCC4)nccn3c2=O)c1 |
| 860 | COc1ccc(CNC(=O)C2(C)Cc3ccccc3C(=O)N2Cc2ccco2)cc1 (stereo not drawn) |
| 964 | CCOc1ccccc1-c1noc(Cn2c(=O)n(-c3cccc(OC)c3)c(=O)c3sccc32)n1 |

| Compound | RP-LC retention time [s] |
| --- | --- |
| O=C(c1ccsc1)N1[C@H]2CC[C@@H]1c1cnc(-c3ccccc3)nc1C2 | 886 |
